These are literature values, as cited in patent publication US9556167B2, “TLR-agonist-conjugated antibody recruiting molecules (TLR-ARMs)” (YALE UNIVERSITY, priority 2012, dated 2017).

For series [1], the system named is aggressive end-stage prostate cancer.
The test system of series [2] is advanced prostate cancer patients.

With `CC(=O)O[C@H]1CC[C@@]2(C)C(=CC[C@@H]3[C@@H]2CC[C@]2(C)C(c4cccnc4)=CC[C@@H]32)C1` [abiraterone acetate], the “patients with reduced PSA levels and tumor sizes” value in series [1] was ≤ 70 % of patients.

Regarding `CC(=O)O[C@@]12CO[C@@H]1C[C@H](O)[C@@]1(C)C(=O)[C@H](O)C3=C(C)[C@@H](OC(=O)[C@H](O)[C@@H](NC(=O)OC(C)(C)C)c4ccccc4)C[C@@](O)([C@@H](OC(=O)c4ccccc4)[C@H]21)C3(C)C` [Taxotere], the “prolongation of life on average” value in series [2] was 2.5 months.
